Active and inactive are the calls of the source. The rule behind the calls is not given here.
Assays:
[1] = molecular target: T1, ATP-dependent translocase ABCB1 (Homo sapiens, UniProt P08183); test: Inhibition of human ABCB1 expressed in mouse L5178Y cells using rhodamine 123 as substrate assessed as ratio of fluorescent intensity in ABCB1 expressing L5178Y cells to wild type L5178Y cells at 1 uM after 20 mins by flow cytometry; type: cell-based
Homo sapiens [2] = species: Homo sapiens; test: Induction of ABCB1 expression in human EPG85-257RDB cells at 10 uM after 72 hrs by Western blot analysis; type: functional, cell-based
A2780cisR = test: Induction of ABCB1/2 expression in human A2780cisR cells at 10 uM after 72 hrs by Western blot analysis; type: functional, cell-based
L5178Y [3] = test: Cytotoxicity against wild type mouse L5178Y cells after 48 hrs by MTT assay; type: cell-based
Homo sapiens [4] = species: Homo sapiens; test: Induction of ABCB1 expression in human EPG85-257RDB cells at 10 uM after 72 hrs by Western blot analysis in presence of daunorubicin; type: functional, cell-based
L5178Y [5] = test: Cytotoxicity against wild type mouse L5178Y cells by MTT assay; type: cell-based
EPG85-257P [6] = test: Induction of ABCB1 expression in human EPG85-257P cells at 10 uM after 72 hrs by Western blot analysis; type: functional, cell-based
EPG85-257P [7] = test: Induction of ABCB1 expression in human EPG85-257P cells at 10 uM after 72 hrs by Western blot analysis in presence of daunorubicin; type: functional, cell-based
L5178Y [8] = test: Cytotoxicity against mouse L5178Y cells expressing human ABCB1 after 48 hrs by MTT assay; type: ADME, cell-based
[9] = molecular target: T1, ATP-dependent translocase ABCB1; test: Inhibition of human ABCB1 expressed in mouse L5178Y cells using rhodamine 123 as substrate assessed as ratio of fluorescent intensity in ABCB1 expressing L5178Y cells to wild type L5178Y cells at 10 uM after 20 mins by flow cytometry; type: cell-based
L5178Y [10] = test: Cytotoxicity against mouse L5178Y cells expressing human ABCB1 by MTT assay; type: ADME, cell-based
[11] = molecular target: T1, ATP-dependent translocase ABCB1; test: Ratio of verapamil to compound for inhibition of human ABCB1 expressed in mouse L5178Y cells using rhodamine 123 as substrate assessed as ratio of fluorescent intensity in ABCB1 expressing L5178Y cells to wild type L5178Y cells at 1 to 10 uM after 20 mins by flow cytometry; type: cell-based

T1 sequence (P08183 whole entry): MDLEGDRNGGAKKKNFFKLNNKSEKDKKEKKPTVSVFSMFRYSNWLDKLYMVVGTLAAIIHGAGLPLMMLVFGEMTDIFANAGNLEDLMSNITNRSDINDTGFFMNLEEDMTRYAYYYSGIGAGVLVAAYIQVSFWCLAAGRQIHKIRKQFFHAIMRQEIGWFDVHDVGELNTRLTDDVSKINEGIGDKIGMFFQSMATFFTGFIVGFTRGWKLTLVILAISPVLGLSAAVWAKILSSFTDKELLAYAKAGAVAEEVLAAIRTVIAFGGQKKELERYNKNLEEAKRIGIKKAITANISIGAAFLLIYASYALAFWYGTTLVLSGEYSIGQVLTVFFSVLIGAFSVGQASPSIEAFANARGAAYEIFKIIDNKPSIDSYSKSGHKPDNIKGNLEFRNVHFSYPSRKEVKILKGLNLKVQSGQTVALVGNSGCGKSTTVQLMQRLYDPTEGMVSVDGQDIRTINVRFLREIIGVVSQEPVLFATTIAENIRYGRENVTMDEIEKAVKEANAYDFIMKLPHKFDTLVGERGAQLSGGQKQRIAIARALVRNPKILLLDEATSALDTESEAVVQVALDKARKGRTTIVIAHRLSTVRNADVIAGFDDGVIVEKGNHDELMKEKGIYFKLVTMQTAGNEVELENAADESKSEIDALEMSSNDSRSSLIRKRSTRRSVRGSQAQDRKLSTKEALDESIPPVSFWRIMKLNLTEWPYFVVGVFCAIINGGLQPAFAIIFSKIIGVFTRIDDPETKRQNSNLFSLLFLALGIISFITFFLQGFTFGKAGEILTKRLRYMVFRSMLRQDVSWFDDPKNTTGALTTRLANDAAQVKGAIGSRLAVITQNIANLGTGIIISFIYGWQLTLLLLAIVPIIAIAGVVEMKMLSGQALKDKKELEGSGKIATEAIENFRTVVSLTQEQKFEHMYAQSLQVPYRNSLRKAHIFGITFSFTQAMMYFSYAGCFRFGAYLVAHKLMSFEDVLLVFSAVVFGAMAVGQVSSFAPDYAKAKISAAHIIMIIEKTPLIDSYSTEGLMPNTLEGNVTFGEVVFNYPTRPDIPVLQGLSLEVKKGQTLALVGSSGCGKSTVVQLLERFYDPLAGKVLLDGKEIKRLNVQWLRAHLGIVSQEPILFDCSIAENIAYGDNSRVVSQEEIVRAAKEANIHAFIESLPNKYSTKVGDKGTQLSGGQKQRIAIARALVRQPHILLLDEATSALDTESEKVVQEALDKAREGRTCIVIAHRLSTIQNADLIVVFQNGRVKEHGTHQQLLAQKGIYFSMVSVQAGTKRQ

SMILES | Ratio [1] | Ratio [9] | further results
CCOC(=O)C1=CN(Cc2cccc(OC)c2)c2ccccc2C1c1ccc(OC)c(OC)c1 (stereo not drawn) | 2.98 | 15.86 | Activity (Homo sapiens [2]): inactive; Activity (A2780cisR): inactive; Activity (L5178Y [3]): Non-toxic; Activity (Homo sapiens [4]): inactive; IC50 (L5178Y [5]): > 160 µM; Activity (EPG85-257P [6]): inactive; Activity (EPG85-257P [7]): inactive; Activity (L5178Y [8]): Non-toxic; IC50 (L5178Y [10]): > 160 µM
CCOC(=O)C1=CN(Cc2cccc(OC)c2)c2ccccc2C1c1cc(OC)cc(OC)c1 (stereo not drawn) | 2.71 | 13.11 | 
CCOC(=O)C1=CN(Cc2ccccc2)c2ccccc2C1c1ccc(OC)c(OC)c1 (stereo not drawn) | 3.42 | 12.77 | Activity (L5178Y [3]): Non-toxic; IC50 (L5178Y [5]): > 160 µM; Activity (L5178Y [8]): Non-toxic; Ratio [11]: 2.5; IC50 (L5178Y [10]): > 160 µM
CCOC(=O)C1=CN(Cc2ccccc2)c2ccccc2C1c1cc(OC)cc(OC)c1 (stereo not drawn) | 2.96 | 10.5 | 
COc1ccc(CCN(C)CCCC(C#N)(c2ccc(OC)c(OC)c2)C(C)C)cc1OC (stereo not drawn) [VERAPAMIL] | 1.46 | 4.98 | 
CCOC(=O)C1=CN(Cc2ccccc2)c2ccccc2C1c1ccccc1 (stereo not drawn) | 1.48 | 4.72 | 
CCOC(=O)C1=CN(Cc2ccc(OC)cc2)c2ccccc2C1c1cc(OC)cc(OC)c1 (stereo not drawn) | 3.63 | 13.36 | 
CCOC(=O)C1=CN(Cc2ccc(OC)cc2)c2ccccc2C1c1cccc(OC)c1 (stereo not drawn) | 2.03 | 10.34 | 
CCOC(=O)C1=CN(Cc2cccc(OC)c2)c2ccccc2C1c1cccc(OC)c1 (stereo not drawn) | 2.26 | 9.68 | 
CCOC(=O)C1=CN(Cc2cccc(OC)c2)c2ccccc2C1c1ccc(OC)cc1 (stereo not drawn) | 2.23 | 9.95 | 
CCOC(=O)C1=CN(Cc2ccc(OC)cc2)c2ccccc2C1c1ccc(OC)cc1 (stereo not drawn) | 2.55 | 13.66 | 
CCOC(=O)C1=CN(Cc2ccc(OC)cc2)c2ccccc2C1c1ccc(OC)c(OC)c1 (stereo not drawn) | 2.41 | 15.84 | 

Reference: ChEMBL document CHEMBL3593204, “Discovery of substituted 1,4-dihydroquinolines as novel class of ABCB1 modulators” (Bioorg Med Chem, 2015)
